Assay results: US11999697B2, “Methods and compositions for inhibition of dihydroorotate dehydrogenase” (OHIO STATE INNOVATION FOUNDATION, priority 2018, dated 2024)
Structures can show the parent of a compound that is named as a salt.

Assays:
[1] = system: IDH2-R140Q/Flt3-ITD spleen cells (murine AML); assay: IDH2-R140Q/Flt3-ITD adoptive transfer model; type: in vivo, NCG mice; settings: daily oral gavage; Cpd3 50 mg/kg, enasidenib 100 mg/kg
Text: Leukemic cells derived from a spontaneous murine model of Idh2/Flt3 AML, as reported by Shih et al (Cancer Discov. 7(5):494-505), were engrafted via adoptive transfer to generate an aggressive model of AML suitable for testing of therapeutic agents. Briefly, 6-8 week old mice harboring a heterozygous internal tandem duplication of FMS-like tyrosine kinase 3 (Flt3-ITD), a heterozygous point mutation of isocitrate dehydrogenase 2 (Idh2-R140Q) preceeded by a loxP flanked STOP codon, and Cre recombinase under the MX dynamin like GTPase 1 (Mx1) promoter were injected i.p. with polyinosinic:polycytidylic acid (poly(I:C)), activating Cre recombinase and inducing hematopoietic-specific expression of the Idh2-R140Q mutation. Spleen cells from these mice were collected after the development of lethal AML (defined by study removal criteria), typically 8-14 months post-poly(I:C) injection. 1×10^5 spleen cells from a single leukemic donor were engrafted by tail vein injection into 6 week old immune deficient NOD-Prkdc^em26Cd52//2rg^em26Cd22/NjuCrl mice (NCG; Charles River). At one week post-engraftment, animals were randomized to vehicle (5% EtOH, 10% Kolliphor EL, in PBS), enasidenib (100 mg/kg), and HOSU-3 (50 mg/kg) treatment arms and dosed by daily oral gavage. Personnel responsible for animal monitoring, dosing, and decisions regarding euthanasia were blinded to treatment arms. Survival was assessed using Kaplan-Meier analysis and p-values were determined using the log-rank test and adjusted using Holm's method.

[2] = system: AML cell lines (MOLM13, MV4-11, THP1, HL-60, and OCI-AML3)
Protocol: MTS assay for cell growth/viability: Mitochondrial activity was measured to determine cell proliferation using an MTS assay (tetrazolium dye 3′[4,5-dimethylthiazol-2-yl]-2,5-diphenyl-tetrazolium bromide). Metabolically active cells convert MTS tetrazolium salt into a purple formazan product that is soluble in tissue culture medium. The amount of formazan measured at 490 nm absorbance is proportional to the number of proliferating cells. […] Triplicate wells were set up for each condition. At 96 hours, the MTS reagent was added and after approximately 4 hours the plates were read in a spectrophotometer. MTS assays in primary AML cells were done in a similar manner as the cell lines with the following changes: 100K cells were plated per well, and the MTS was done in the presence of an HS5 stromal cell line to support the in vitro growth of the primary cells. Primary cells were incubated with MTS for approximately 8-12 hours (varies with the samples) before reading the absorbance.
Cell proliferation assays were carried out using the MTS assay described herein using five AML cell lines (i.e., MOLM13, MV4-11, THP1, HL-60, and OCI-AML3) with varied genetic backgrounds. The assays were carried out in a blinded fashion.

Row | SMILES | Median survival [1] | cytotoxicity compared to the free acid form and brequinar [2]
1 | CC(C)(O)CNc1nc(Nc2ccnc(C(F)(F)F)c2)nc(-c2cccc(C(F)(F)F)n2)n1 [Enasidenib, reference compound] | 34 days | 
2 | CCOc1ccc(-c2ccc(-c3cc(C(=O)O)c4cc(F)ccc4n3)cc2)cc1 [sodium salt form of Cpd3, Sodium 2-(4′-Ethoxy-[1,1′-biphenyl]-4-yl)-6-fluoroquinoline-4-carboxylate] |  | equally cytotoxic against AML cell lines
